Series [1] concerns MDA-MB231-luc-D3H2LN cells. As to the kind of experiment: Viability (MTS) assay on the cells in collagen under invasion assay conditions. The note with it: loss of viability at the concentration giving 0.5 × effect of 10 μM Y-27632, invasion assay conditions. It is filed as cell-based, human. Put shortly:
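Run on cells embedded in collagen after a further 24 h, on serum-starved cells and in parallel on cells in 10% FBS. MTS reagent 3–4 h at 37 °C, absorbance at 490 nm; background-corrected signals expressed as % of untreated control.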

The subject of series [2] is MDA-MB231-luc-D3H2LN cells. As to the kind of experiment: Toxicity assay under normal cell culture conditions (MTS), MDA cells. Format: cell-based, human. Particulars: MDA-MB231-luc-D3H2LN cells, MEM+10% FBS, 72 h incubation, MTS. The procedure, abridged:
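Under normal culture conditions (MEM with 10% FBS), MDA-MB231-luc-D3H2LN cells (2000/well) were exposed to compound concentration series for 72 h. Viability measured by MTS assay. Value is the concentration giving 50% toxicity.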

A further series concerns the target T1, hERG channel (Homo sapiens, UniProt Q12809).
T1 construct: host or cells: HEK293
As to the kind of experiment: hERG channel inhibition (electrophysiology, hERG-transfected HEK293 cells). Format: cell-based. Particulars: for % hERG inhibition in transfected HEK (n = 3) at 1 μM av: 1 μM compound; for % hERG inhibition in transfected HEK (n = 3) at 10 μM av: 10 μM compound. As to the method:
Performed by Porsolt & Partners (Z. A. de Glatigné, 53940 Le Genest-Saint-Isle, France). Briefly, each 3 hERG-transfected HEK293 cells were superfused with the compounds at 1 and 10 μM, and the hERG channel current was measured by electrophysiology, as described by Crumb et al., J. Pharmacol. Exp. Ther. 2000.

The test system of series [3] is MDA-MB231-luc-D3H2LN cells. As to the kind of experiment: Invasion of MDA-MB231-D3H2LN cells into collagen (example 15 = procedure 2, 48 h drug pre-incubation). It is filed as cell-based. The procedure, abridged:
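Cells embedded at the bottom of collagen gels were pre-treated 48 h with compound in 0.025% FBS, then stimulated with 5% FBS for 24 h at 37° C. Nuclei were imaged at 0, 25 and 50 µm to give mean invasion distance, with MTS viability also measured. Value is the concentration giving 50% of the effect of 10 µM Y-27632.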

In the next series the test system is human PBMC. As to the kind of experiment: Toxicity assay under normal cell culture conditions (MTS), PBMC. Format: cell-based. Particulars: human PBMC, RPMI+10% FBS+IL-2, 72 h incubation, MTS. Put shortly:
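Human PBMC (75000/well) in RPMI + 10% FBS + IL-2 were exposed to compounds for 72 h, with viability read by MTS. Concentration-response curves gave the concentration producing 50% toxicity.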

Series [4] relates to MDA-MB231-luc-D3H2LN cells. As to the kind of experiment: Invasion of MDA-MB231-D3H2LN cells into collagen (procedure 1, 24 h drug incubation). Format: cell-based, human. Particulars: for anti-invasive activity (in words): first set of experiments, procedure 1; for Invasion av.: number of cells per valid field at 50 μm, fold inhibitory effect compared to 10 μM Y-27632: procedure 1, first set of experiments. As to the method:
It is to be noted that both Procedures 1 and 2 are invasion assays to test effect of drug compounds on invasion. They are both fully identical except for the time of incubation with the drug.
Here, invasion (into collagen) is the number of cells per valid field at 50 μm fold inhibitory effect compared to 10 μM Y-27632.
Standard Operating Procedure 1:
Said procedure is as described in example 15 except with respect to (i) the last step during day 1 “preparation of the invasion assay” and “treatment with the drugs” and days 2 and 3 which are detailed hereinafter and (ii) the fact that no concentration nor toxicity is determined at the end.
add each 33 μl/well of the 4× concentrated drug solutions in MEM+0.1% FBS to the corresponding wells in all three plates, according to the plate maps above
incubate 24 h at 37° C./5% CO2
The analysis as performed in day 5 in example 15 is performed exactly under the same conditions in day 3 in the framework of the present procedure 1.

Setting [5] is: concentration giving 50% of the anti-invasive effect of 10 μM Y-27632, 48 h pre-incubation, 24 h with 5% FBS, read-out: MDA: Inhib. of invasion: 0.5 × eff. of 10 μM Y-27632 at (μM) av.

Like-named read-outs stand apart in the source and are kept apart here.

T1 sequence (Q12809 whole entry): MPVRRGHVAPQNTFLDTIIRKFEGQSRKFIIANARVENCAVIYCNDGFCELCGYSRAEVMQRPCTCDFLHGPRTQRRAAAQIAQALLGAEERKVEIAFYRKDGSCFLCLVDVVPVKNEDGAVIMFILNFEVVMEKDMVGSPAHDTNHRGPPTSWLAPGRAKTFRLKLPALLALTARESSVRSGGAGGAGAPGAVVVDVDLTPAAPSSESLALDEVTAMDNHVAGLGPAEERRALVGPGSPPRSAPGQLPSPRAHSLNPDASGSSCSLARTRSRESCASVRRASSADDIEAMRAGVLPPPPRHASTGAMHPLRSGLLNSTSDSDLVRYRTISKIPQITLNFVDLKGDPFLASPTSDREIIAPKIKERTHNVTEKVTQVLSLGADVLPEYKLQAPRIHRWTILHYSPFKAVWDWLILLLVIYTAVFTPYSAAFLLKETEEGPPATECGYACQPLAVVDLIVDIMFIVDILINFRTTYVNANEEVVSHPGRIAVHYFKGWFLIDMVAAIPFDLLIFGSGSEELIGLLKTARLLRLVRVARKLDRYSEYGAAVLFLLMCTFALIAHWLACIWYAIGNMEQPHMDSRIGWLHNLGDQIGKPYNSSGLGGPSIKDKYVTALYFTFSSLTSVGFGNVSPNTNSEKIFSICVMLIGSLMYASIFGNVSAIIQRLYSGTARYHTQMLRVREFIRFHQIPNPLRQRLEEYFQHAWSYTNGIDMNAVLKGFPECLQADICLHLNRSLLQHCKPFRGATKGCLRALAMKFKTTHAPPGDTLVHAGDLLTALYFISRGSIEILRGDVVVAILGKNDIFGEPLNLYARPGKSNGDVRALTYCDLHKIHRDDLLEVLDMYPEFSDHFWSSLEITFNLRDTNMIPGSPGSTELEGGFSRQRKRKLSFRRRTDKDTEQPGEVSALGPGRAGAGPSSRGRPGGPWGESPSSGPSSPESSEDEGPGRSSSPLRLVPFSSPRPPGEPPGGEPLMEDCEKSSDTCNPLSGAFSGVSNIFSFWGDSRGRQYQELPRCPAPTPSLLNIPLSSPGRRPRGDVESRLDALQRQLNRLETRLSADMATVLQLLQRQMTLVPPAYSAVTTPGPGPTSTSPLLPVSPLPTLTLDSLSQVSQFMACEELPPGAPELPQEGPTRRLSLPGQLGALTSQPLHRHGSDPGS

`O=C(NCCCN1CCOCC1)c1cccc(Nc2cccc(/C=C/c3ccncc3)c2)c1` [Compound 583, reference compound]: in series [1], the “(+ MDA tox. under these cond.) % tox” value was under 10%. For the same compound, in series [2], the “MDA tox: 50% tox. at (μM) av” value was found to be 21 µM. For the same compound, at hERG channel, the “% hERG inhibition in transfected HEK (n = 3) at 1 μM av” value (“% hERG inhibition … at 1 μM av” for short) stood at 36% and the “% hERG inhibition in transfected HEK (n = 3) at 10 μM av” value (“% hERG inhibition … at 10 μM av” for short) was 74%. In addition, the IC50 in series [3] (setting [5]) worked out at 0.25 µM. Besides, the “PBMC tox.: 50% tox. at (μM) av” value with human PBMC stood at 18 µM.

Regarding `O=C(NCCCN1CCCC1)c1cccc(Nc2cccc(/C=C/c3ccncc3)c2)c1` [Compound 585, reference compound], in series [1], the “(+ MDA tox. under these cond.) % tox” value is under 10%. Further, in series [2], the “MDA tox: 50% tox. at (μM) av” value was 10 µM. Also, on hERG channel, the “% hERG inhibition … at 1 μM av” value was found to be 42% and the “% hERG inhibition … at 10 μM av” value is reported as 77%. Also, in series [3] (setting [5]), the IC50 turned out to be 0.3 µM. For the same compound, the “PBMC tox.: 50% tox. at (μM) av” value with human PBMC is 9 µM.

Regarding `CCN(CC)CCCNC(=O)c1cccc(Nc2cccc(/C=C/c3ccncc3)c2)c1` [Compound C88, reference compound], in series [4], the “anti-invasive activity (in words)” value is recorded as “anti-invasive activity was detected” and the “Invasion av.: number of cells per valid field at 50 μm, fold inhibitory effect compared to 10 μM Y-27632” value was 1. Moreover, the “(+ MDA tox. under these cond.) % tox” value in series [1] is reported as under 10%. In series [2], the “MDA tox: 50% tox. at (μM) av” value turned out to be 10 µM. Besides, on hERG channel, the “% hERG inhibition … at 1 μM av” value is reported as 55% and the “% hERG inhibition … at 10 μM av” value was found to be 92%. For the same compound, the IC50 in series [3] (Homo sapiens, procedure 2, second set of experiments, read-out: Invasion Av.: concentration of the compound necessary to reach 50% of the inhibition effect compared to 10 μM Y-27632) amounted to 0.39 µM. For the same compound, the IC50 in series [3] (setting [5]) was 0.39 µM. Further, in series [3] (second set of experiments, procedure 2 (example 15)), the “anti-invasive activity (in words)” value is reported as “anti-invasive activity is detected”. In the series on human PBMC, the “PBMC tox.: 50% tox. at (μM) av” value came out at 10 µM.

For `CCN(CC)CCCNC(=O)c1cccc(Nc2cccc(NC(=O)c3cccnc3)c2)c1` [FMMB46.1], in series [4], the “anti-invasive activity (in words)” value was “no effect was observed” and the “Invasion av.: number of cells per valid field at 50 μm, fold inhibitory effect compared to 10 μM Y-27632” value worked out at 0.02.

Values taken from patent US9969715B2, “Compounds useful for treating cancer” (ABIVAX, priority 2012, dated 2018).
